The numbers were not newly measured in PMC4891020, “Preclinical evaluation of a nanoformulated antihelminthic, niclosamide, in ovarian cancer” (Oncotarget, 2016), which cites them from elsewhere.

Molecules are shown by their SMILES. Converted amounts (≈) assume the structure as drawn.

Details of series [1]: method as in earlier work.

In the case of `O=C(Nc1ccc([N+](=O)[O-])cc1Cl)c1cc(Cl)ccc1O` [Niclosamide, niclosamide], the “systemic bioavailability when administered orally” value is about 10%. The water solubility in series [1] is 0.23 µg/mL (≈ 0.703 µM).
